# Source: patent US20240279288A1, “APPLICATION OF PLANT JAZ PROTEINS AND DERIVED POLYPEPTIDES IN PREVENTION AND TREATMENT OF HUMAN AND ANIMAL TUMORS” (ANYANG INSTITUTE OF SINO-COTTON INDUSTRY INNOVATION, priority 2021, published 2024)
# Columns and labels:
# MCF7 cells = test: Detection of GhJAZ1 protein entry into the nucleus, fluorescence microscope; assay type: cell-based, human; conditions: 0.5 μM
# Source text: In order to explore how GhJAZ1 enters cancer cells, we cloned the genes of most tumor surface receptors, including uPAR (NCBI database accession number of NM_002659.4), CCK1R (NP_000721.1), CCK2R (NP_001350481.1), HER2 (NP_004439.2), GRPR (NP_005305.1), MUC1 (NP_001358649.1), VEGFR1 (NP_002010.2), Insulin receptor (NM_000208.4), NTR (XM_011528827.2), PSMA (XM_017017432.1), TFR1 (NM_001128148.3), TFR2 (NM_003227.4), PEPT1 (NM_005073.4), APN (NM_001150.3). The receptor proteins that interact with GhJAZ1 were then screened by yeast two hybrid (the steps of the experiment as Example 3). […] We detected the interaction of GhJAZ1 with uPA (as the ligand of uPAR, NCBI database accession number of NP_002649.2) and uPAR by yeast two hybrid (the steps of the experiment as Example 3). […] GhJAZ1+RFP (the amino acid sequence set forth in SEQ ID No. 81, corresponding encoding gene sequence set forth in SEQ ID No. 82) was ligated to pET-30a (+) vector (YouBio, Cat. No.: VT1212) between NdeI and HindIII, and GhJAZ1+RFP protein with red fluorescence was prokaryotically expressed and purified (the step of method as step 2 in Example 4) (A in FIG. 11), and then MCF7 cells were treated with GhJAZ1+RFP protein and observed by a fluorescence microscope.
# [1] = test system: callus of cotton "CCRI 24"; test: Growth of cotton callus on medium with JA synthesis inhibitor; conditions: DIECA 200, 400, 800 μM or ibuprofen 20, 40, 80 μM in callus induction medium; hypocotyl explants
# Experimental: (§1) Explants from “CCRI 24” were cut to consistent length and placed under the same conditions for cultivation. After one month, the growth of callus was observed and photographed with a camera and microscope. Statistics on the weights of callus and measurement of JA content were performed.
# [2] = test system: JA content of callus of cotton "CCRI 24"; test: JA content in cotton callus (HPLC); conditions: DIECA 200, 400, 800 μM or ibuprofen 20, 40, 80 μM in callus induction medium
# Experimental: as §1
# [3] = test system: cell cycle-related genes of callus; test: Fluorescence quantitative PCR of cell cycle-related genes in cotton callus; conditions: DIECA 200, 400, 800 μM or ibuprofen 20, 40, 80 μM in callus induction medium
# Experimental: Identification at the RNA level: RNA was extracted using RNA extraction kit (RNAprep Pure Polysaccharide Polyphenol Plant Total RNA Extraction Kit (DP441), manufacturer: TIANGEN BIOTECH (BEIJING) CO., LTD.), and then cDNA was obtained using two-step reverse transcription kit (a third-generation premix for two-step de-genomization and reverse transcription, Cat. No.: MR05201). cDNA as a template was added into a 96-well plate, with addition of SYBR®Green I chimeric dye (an antibody dye quantitative PCR premix, Cat. No.: MQ10101) and gene primers for three-step qPCR amplification. Finally, the relative gene expression was calculated based on the Ct value.
# The steps of RNA extraction, reverse transcription, and fluorescence quantitative PCR were the same as above, and the sequences of primers were as follows: […]
# as §1
Molecule,entry into the nucleus of MCF7 cells (red fluorescence merged with blue nuclear fluorescence) (MCF7 cells),growth of callus of cotton [1],JA content of callus [2],cell cycle-related genes of callus [3]
"GhJAZ1+RFP: GhJAZ1 fused with RFP, red fluorescence, amino acid sequence SEQ ID No. 81",entered the nucleus,,,
CC(C)Cc1ccc(C(C)C(=O)O)cc1 (stereo not shown) [ibuprofen],,significantly inhibit,significantly decreased,marked changes
CCN(CC)C(=S)[S-].[Na+] [DIECA],,significantly inhibit,significantly decreased,marked changes
